{"source": "patent US6040149A", "about": "“Assay for identifying agents which act on the ceramide-activated protein kinase, kinase suppressor of ras, and methods of using said agents” (priority 1997, dated 2000)", "key": {"[1]": {"test_system": "ceramide-activated protein kinase", "test": "Ceramide-activated protein kinase activity (EGFR peptide) in EL-4 cell fractions", "details": "10 nM to 1 μM"}, "[2]": {"test_system": "ceramide-activated protein kinase", "details": "treatment of intact cells; literature; cited from earlier work"}, "[3]": {"test_system": "KSR/Raf-1 complex", "test": "Co-immunoprecipitation of KSR and Raf-1 from treated COS-7 cells", "assay_type": "cell-based, mouse KSR (COS-7 cells)", "details": "TNFα", "description": "FIG. […] Cells were lysed with NP-40 buffer and subjected to 4 hr of immunoprecipitation with anti-Raf-1 antibody. Two controls, KSR and KSR with ceramide treatment, received protein A conjugated sepharose beads without anti-Raf-1 antibody. […] Data represent one of four similar experiments.\nCell lysates were subjected to immunoprecipitation with anti-Flag antibody. Immunoprecipitated samples were handled as in FIG. 24A except Western blot analysis was performed with anti-Raf-1 antibody. Data represent one of three similar experiments.\nAnti-Raf-1 antibody conjugated beads were prepared by overnight incubation of 2 μl of anti-Raf-1 antibody (a kind gift of Dr. Debbie Morrison) with 5 mg of the protein A conjugated sepharose beads, followed by washing three times with NP-40 lysis buffer. […] Lysates (0.8 mg total protein) were then incubated for 4 hrs with anti-Raf-1 bound sepharose beads or anti-Flag conjugated agarose beads. The beads were washed vigorously 5 times, boiled in Laemmli sample buffer, and proteins were separated on 7.5% SDS-PAGE. After electrophoresis, the gel was transferred to PVDF membrane and probed with anti-Flag antibody or anti-Raf-1 antibody."}, "[4]": {"biological_target": "T1, KSR (Mus musculus, UniProt Q61097)", "T1 sequence (Q61097 1-873)": "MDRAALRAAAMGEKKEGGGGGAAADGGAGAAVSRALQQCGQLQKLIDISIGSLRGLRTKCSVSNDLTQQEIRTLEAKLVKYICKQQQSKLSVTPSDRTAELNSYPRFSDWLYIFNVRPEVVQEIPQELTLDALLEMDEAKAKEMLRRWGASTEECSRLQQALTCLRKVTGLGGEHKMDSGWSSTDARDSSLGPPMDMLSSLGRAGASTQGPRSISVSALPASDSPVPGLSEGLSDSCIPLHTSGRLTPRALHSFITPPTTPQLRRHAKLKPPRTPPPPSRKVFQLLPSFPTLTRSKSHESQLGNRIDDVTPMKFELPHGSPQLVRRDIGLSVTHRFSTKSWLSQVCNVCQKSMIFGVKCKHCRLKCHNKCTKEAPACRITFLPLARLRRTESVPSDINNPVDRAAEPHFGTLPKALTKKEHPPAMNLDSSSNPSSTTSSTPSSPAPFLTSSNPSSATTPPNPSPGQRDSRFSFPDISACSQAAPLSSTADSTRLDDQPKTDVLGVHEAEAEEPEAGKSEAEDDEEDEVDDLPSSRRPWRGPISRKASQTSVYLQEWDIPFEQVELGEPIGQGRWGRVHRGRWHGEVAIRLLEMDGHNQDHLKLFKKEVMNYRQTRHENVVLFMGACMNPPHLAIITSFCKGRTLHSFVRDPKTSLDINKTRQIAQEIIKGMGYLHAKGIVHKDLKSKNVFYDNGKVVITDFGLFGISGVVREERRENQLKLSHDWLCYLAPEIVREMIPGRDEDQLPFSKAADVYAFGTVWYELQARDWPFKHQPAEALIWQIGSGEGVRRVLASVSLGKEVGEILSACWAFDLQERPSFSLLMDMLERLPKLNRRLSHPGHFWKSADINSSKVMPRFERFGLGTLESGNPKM", "test": "KSR autophosphorylation in vitro", "assay_type": "biochemical, mouse (KSR immunoprecipitated from COS-7 cells)", "parameters": "Raf-1 peptides as substrate", "description": "Phosphorylated KSR was resolved and detected as in FIG. 2A.\nKSR was immunoprecipitated as above from 0.8 mg NP-40 lysate protein with 40 μl agarose-conjugated anti-Flag antibody at 4° C. for 4 hrs or overnight. […] The reaction was stopped by addition of Laemmli sample buffer. Samples were resolved by 7.5% sodium dodecyl sulfate-polyacrylamide gel electrophoresis (SDS-PAGE) and autoradiographed."}}}
{"compound": "CCCCCCCCCCCCC/C=C/[C@@H](O)[C@@H](N)CO", "note": "[sphingosine]", "values": [{"measurement": "enhancement of kinase activity, of control", "setting": "[1]", "value": "1.5-2.5 of control"}]}
{"compound": "TNF-α", "values": [{"measurement": "enhancement of CAP kinase autophosphorylation / activity", "setting": "[2]", "value": "5-10 fold"}, {"measurement": "KSR complex formation with Raf-1", "setting": "[3]", "value": "induced KSR to complex with Raf-1"}]}
{"compound": "CCCCCCCCCCCCCC(=O)O[C@@H]1[C@@H](C)[C@@]2(O)[C@@H](C=C(CO)C[C@]3(O)C(=O)C(C)=C[C@@H]23)[C@@H]2C(C)(C)[C@]12OC(C)=O", "note": "[TPA, 12-0-tetradecanoylphorbol-13-acetate]", "values": [{"measurement": "effect on activation of KSR", "setting": "[4]", "value": "no effect"}]}
